# Assay results from patent US7528252B2, “Derivatives of triazoly-imidazopyridine useful as ligands of the adenosine A2a receptor and their use as medicaments” (Sigma-Tau Industrie Farmaceutiche Riunite S.p.A., priority 2002, dated 2009).
# Where two headings read alike, the source gives them in different places.
# Assays:
# [1] = target: ADOtransporter; assay: Receptor binding study, ADO transporter; settings: reference compound
# [2] = target: T1, human A2b receptor (Homo sapiens, UniProt P29275); assay: Affinity towards the adenosine A2b receptor ([3H]-DPCPX binding, HEK 293 membranes); settings: read-out: A2b Ki (nM) ± sd
# T1 construct: expressed in transfected cells; host or cells: HEK 293
# T1 sequence (P29275 1-332): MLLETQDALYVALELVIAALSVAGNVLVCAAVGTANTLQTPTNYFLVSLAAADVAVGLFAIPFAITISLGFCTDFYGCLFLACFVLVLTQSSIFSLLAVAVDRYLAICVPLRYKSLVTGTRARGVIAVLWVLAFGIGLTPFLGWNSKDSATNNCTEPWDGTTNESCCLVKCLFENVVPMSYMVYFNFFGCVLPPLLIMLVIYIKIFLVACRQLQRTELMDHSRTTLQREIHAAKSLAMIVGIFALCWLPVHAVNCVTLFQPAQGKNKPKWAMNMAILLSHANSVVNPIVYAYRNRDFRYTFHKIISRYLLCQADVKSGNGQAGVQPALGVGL
# Experimental: The interactive capacity of each product towards the adenosine A2b receptor was evaluated using membranes from HEK 293 cells stably expressing the human A2b receptor subtype exclusively.
# Non-specific binding was measured in the presence of NECA (50 μM).
# In binding studies for each compound, eight different concentrations (from 10^−5 M to 10^−12 M) were evaluated in order to obtain competition curves. By means of non-linear regression analysis of the competition curves, the IC50 values, which express the binding affinity of each product, were determined. Using the Cheng Prusoff equation (Ki=IC50/1+(L/Kd)) Ki values were calculated through which the affinity of each product studied, for the receptor investigated, is expressed.
# [3] = target: T2, human A1 subtype adenosine receptor (Homo sapiens, UniProt P30542); assay: Affinity towards the adenosine A1 receptor ([3H]-DPCPX binding, CHO-K1 membranes); settings: read-out: A1 Ki (nM) ± sd
# T2 construct: expressed in transfected cells; host or cells: CHO-K1
# T2 sequence (P30542 1-326): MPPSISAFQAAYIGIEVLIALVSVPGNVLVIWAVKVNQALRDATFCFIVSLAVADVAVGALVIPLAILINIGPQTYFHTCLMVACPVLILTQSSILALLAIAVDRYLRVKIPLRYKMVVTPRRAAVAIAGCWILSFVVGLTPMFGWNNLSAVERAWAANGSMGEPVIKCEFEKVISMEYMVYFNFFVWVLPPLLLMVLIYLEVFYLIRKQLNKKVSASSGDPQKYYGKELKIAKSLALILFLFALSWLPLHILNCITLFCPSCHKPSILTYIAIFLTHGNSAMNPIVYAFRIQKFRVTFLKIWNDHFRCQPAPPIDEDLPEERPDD
# [4] = target: T3, human A2a receptor (Homo sapiens, UniProt P29274); settings: for KiA1/KiA2a: ratio of receptor affinity (selectivity); for Ki: read-out: A2a Ki (nM) ± sd, human A2a, HEK 293 membranes, [3H]-CGS21680
# T3 sequence (P29274 whole entry): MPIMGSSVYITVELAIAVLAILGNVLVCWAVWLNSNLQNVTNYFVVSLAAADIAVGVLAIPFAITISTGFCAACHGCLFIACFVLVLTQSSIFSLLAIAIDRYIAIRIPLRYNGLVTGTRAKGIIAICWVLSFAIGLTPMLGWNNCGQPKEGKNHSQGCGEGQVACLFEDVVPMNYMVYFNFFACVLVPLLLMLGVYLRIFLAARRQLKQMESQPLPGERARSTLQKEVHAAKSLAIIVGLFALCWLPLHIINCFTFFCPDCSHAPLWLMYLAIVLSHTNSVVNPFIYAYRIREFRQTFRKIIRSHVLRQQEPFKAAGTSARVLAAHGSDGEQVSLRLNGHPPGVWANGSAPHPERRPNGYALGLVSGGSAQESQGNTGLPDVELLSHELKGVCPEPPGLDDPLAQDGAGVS
# [5] = target: T3, human A2a receptor; assay: biochemical
# [6] = target: T4, M5 (Homo sapiens, UniProt P08912); assay: Receptor binding study, M5; settings: reference compound
# T4 sequence (P08912 1-532): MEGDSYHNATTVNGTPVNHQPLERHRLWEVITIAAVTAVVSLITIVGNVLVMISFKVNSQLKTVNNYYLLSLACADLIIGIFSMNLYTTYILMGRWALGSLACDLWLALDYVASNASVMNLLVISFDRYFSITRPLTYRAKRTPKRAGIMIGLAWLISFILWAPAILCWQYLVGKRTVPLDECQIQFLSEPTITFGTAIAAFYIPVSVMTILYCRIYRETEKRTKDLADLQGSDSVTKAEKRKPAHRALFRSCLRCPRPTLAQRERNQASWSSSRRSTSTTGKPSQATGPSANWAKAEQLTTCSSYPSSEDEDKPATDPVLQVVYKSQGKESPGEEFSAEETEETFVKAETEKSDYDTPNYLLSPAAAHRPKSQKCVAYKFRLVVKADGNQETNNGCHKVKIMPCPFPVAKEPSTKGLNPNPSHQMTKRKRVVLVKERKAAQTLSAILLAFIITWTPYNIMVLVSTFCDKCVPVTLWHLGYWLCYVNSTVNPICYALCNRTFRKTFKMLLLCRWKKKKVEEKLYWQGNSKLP
# [7] = target: NMDA; assay: Receptor binding study, NMDA; settings: reference compound
# [8] = target: P2Y; assay: Receptor binding study, P2Y; settings: reference compound
# [9] = system: mice; assay: Forced swim test in mice; assay type: in vivo; settings: 60 minutes before the test; 4 minutes of testing period
# Experimental: Mice were dropped individually into glass cylinders (height: 25 cm, internal diameter 10 cm) containing 10 cm water, maintained at 23° C. The immobility time (sec) was measured during 4 minutes of test. A mouse was judged to be immobile when it remained floating in the water, making only the necessary movements to keep its head above water. Test compound ST 1535 was administered orally to mice, 60 minutes before the test.
# [10] = target: P2X; assay: Receptor binding study, P2X; settings: reference compound
# [11] = target: PCP; assay: Receptor binding study, PCP; settings: reference compound
# [12] = target: GABAa; assay: Receptor binding study, GABAa; settings: reference compound
# [13] = target: T5, Cholinetransporter (Homo sapiens, UniProt Q9GZV3); assay: Receptor binding study, Choline transporter; settings: reference compound
# T5 sequence (Q9GZV3 1-580): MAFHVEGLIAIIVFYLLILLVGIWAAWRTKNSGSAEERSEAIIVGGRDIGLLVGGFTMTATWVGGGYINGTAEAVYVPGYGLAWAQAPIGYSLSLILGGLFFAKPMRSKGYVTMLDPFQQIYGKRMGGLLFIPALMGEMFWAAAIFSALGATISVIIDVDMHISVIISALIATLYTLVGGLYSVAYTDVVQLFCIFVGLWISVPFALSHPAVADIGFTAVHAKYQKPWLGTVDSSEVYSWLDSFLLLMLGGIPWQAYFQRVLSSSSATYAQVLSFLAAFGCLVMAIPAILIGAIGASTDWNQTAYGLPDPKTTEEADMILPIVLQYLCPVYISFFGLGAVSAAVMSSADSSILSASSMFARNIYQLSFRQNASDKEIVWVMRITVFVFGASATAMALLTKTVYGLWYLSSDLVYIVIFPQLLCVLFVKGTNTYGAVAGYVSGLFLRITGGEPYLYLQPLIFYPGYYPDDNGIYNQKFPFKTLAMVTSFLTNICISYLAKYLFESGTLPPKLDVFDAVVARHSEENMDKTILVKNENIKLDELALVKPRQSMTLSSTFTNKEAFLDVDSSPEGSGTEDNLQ
# [14] = system: CD1 male mice; assay: Effects on spontaneous motor activity in mice; assay type: in vivo; settings: for Horizontal activity / Total distance / Vertical activity: mean ± s.e.
# Experimental: For this study, type CD1 male mice (n=8) were used. The effects of the products under study and of the reference compounds were evaluated using an apparatus consisting of a Plexiglas cage (40 cm×40 cm) surrounded by a series of photocells which monitor the movements of the animals placed inside, connected a computerised system, through which, the signals are collected and later elaborated.
# Tests were carried out, after endoperitoneal administration of the products. 15 minutes after treatment, the treated animals, alternating with the controls, were placed inside the cage so as to record their spontaneous movements over a total period of 45 minutes broken down into two observation intervals (15′-45′ and 45′-60′, with respect to the time after treatment).
# To examine the possible effects of the compounds studied on motor activity, the following parameters were considered: horizontal activity, vertical activity: total distance.
# Except for CGS 21680 (reference compound, described in EP 0 277 917, Ciba-Geigy) which was dissolved in 0.9% NaCl, the products studied were solubilised in DMSO and then diluted in Cremofor EL and 0.9% NaCl (final concentrations: DMSO 15%, Cremofor EL 15%, NaCl 0.9%.
# [15] = system: CD1 male mice; assay: Capacity of the products to induce catalepsy in mice; assay type: in vivo; settings: endoperitoneal, 30 minutes prior to the test
# Experimental: 10 CD1 male mice were used per group. For this test, a steel bar, 10 cm long, was placed at a height of 4.5 cm above the support surface. Onto this, were placed the front legs of the animals. The presence of catalepsy was determined by measuring the time (in seconds) the animal remained in the posture placed. Later, this parameter was placed relatively, on a scale of rising values (0 to 5) through which, the degree of catalepsy determined in both control animals and in these subjected to treatment with the substances under test could be proportionately expressed.
# The reference products and these in this study were administered endoperitoneally, in a volume of 10 ml/kg, 30 minutes prior to the test.
# Except for CGS 21680 (reference compound) which was dissolved in 0.9% NaCl, the products in the study and the control antagonist ZM 241385 were solubilised in DMSO and then diluted in Cremofor EL and 0.9% NaCl (final concentrations: DMSO 15%, Cremofor EL 15%, NaCl 0.9%).
# [16] = 2.5 mg/kg endoperitoneal, interval 15′-45′ from treatment
# [17] = 2.5 mg/kg endoperitoneal, interval 45′-60′ from treatment
# [18] = 5 mg/kg endoperitoneal, interval 15′-45′ from treatment
# [19] = 5 mg/kg endoperitoneal, interval 45′-60′ from treatment
# [20] = 10 mg/kg endoperitoneal, interval 15′-45′ from treatment
# [21] = 10 mg/kg endoperitoneal, interval 45′-60′ from treatment
# [22] = 0.5 mg/kg endoperitoneal, interval 15′-45′ from treatment
# [23] = 0.5 mg/kg endoperitoneal, interval 45′-60′ from treatment
compound,measurement,setting,value
"O=[N+]([O-])c1ccc(CSc2ncnc3c2ncn3[C@@H]2O[C@H](CO)[C@@H](O)[C@H]2O)cc1 [NBTI, reference compound]",IC50,[1],0.3 nM
"Cn1c(-n2nccn2)nc2c(N)nccc21 [ST 1680, 4-amino-1-methyl-2-(triazol-2-yl)-1(H)-imidazo[4,5-c]pyridino triflate]",Ki,[2],926 ± 55 nM
same,Ki,[3],1560 ± 252 nM
same,KiA1/KiA2a,[4],16
same,Ki,[5],97 ± 23 nM
"Cc1nc(N)c2nc(-n3nccn3)n(C)c2n1 [ST 1491, 6-amino-2,9-dimethyl-8-(triazol-2-yl)-9(H)-purine]",Ki,[3],10 ± 1.4 nM
same,KiA1/KiA2a,[4],0.15
same,Ki,[4],70 ± 15 nM
"Cn1c(-n2nccn2)nc2c(N)ncnc21 [ST 1490, 6-amino-9-methyl-8-(triazol-2-yl)-9(H)-purine]",Ki,[3],0.43 nM
same,KiA1/KiA2a,[4],0.009
same,Ki,[4],46 nM
"C[N+]1(C)CCC(OC(=O)C(c2ccccc2)c2ccccc2)CC1 [Compound 4-DAMP, reference compound]",IC50,[6],2 nM
"O=C(O)[C@@H]1C[C@H](CP(=O)(O)O)CCN1 [CGS 19755, reference compound]",IC50,[7],967 nM
"Nc1ncnc2c1ncn2[C@H]1C[C@H](O)[C@@H](COP(O)(=S)OP(=O)(O)OP(=O)(O)O)O1 (stereo partly drawn) [dATPα S, reference compound]",IC50,[8],22 nM
"CN(C)CCCN1c2ccccc2CCc2ccccc21 [imipramine, reference compound]","time of immobility, forced swim test (FIG. 5)",[9],in a manner similar to that observed for the antidepressive drug Imipramine
"Nc1ncnc2c1ncn2[C@@H]1O[C@H](COP(=O)(O)CP(=O)(O)OP(=O)(O)O)[C@@H](O)[C@H]1O [α,β-MeATP, reference compound]",IC50,[10],14 nM
"O=c1nc2[nH]c3ccccc3nc-2c(=O)[nH]1 [Alloxazine, reference compound]",Ki,[2],3.8 ± 2.1 nM
"C[C@]12N[C@H](Cc3ccccc31)c1ccccc12 [MK-801, reference compound]",IC50,[11],2 nM
"NCc1cc(=O)[nH]o1 [muscimol, reference compound]",IC50,[12],16 nM
"C[N+]1(C)CCOC(O)(c2ccc(-c3ccc(C4(O)C[N+](C)(C)CCO4)cc3)cc2)C1 (stereo not drawn) [Hemicholinium-3, reference compound]",IC50,[13],12 nM
"Cn1c(-n2nccn2)nc2c(N)nc(CCc3ccccc3)nc21 [ST 1537, 9-methyl-2-(2-phenylethyl)-8-(2H-1,2,3-triazol-2-yl)-9H-purine-6-ylamine]",Ki,[2],2330 ± 588 nM
same,Ki,[3],80 ± 13 nM
same,Horizontal activity,[14]; [16],7494 ± 565
same,Total distance,[14]; [16],1676 ± 204
same,Vertical activity,[14]; [16],590 ± 78
same,Horizontal activity,[14]; [17],3133 ± 250
same,Total distance,[14]; [17],677 ± 105
same,Vertical activity,[14]; [17],210 ± 17
same,Horizontal activity,[14]; [18],7203 ± 264
same,Total distance,[14]; [18],1503 ± 116
same,Vertical activity,[14]; [18],498 ± 77
same,Horizontal activity,[14]; [19],2844 ± 299
same,Total distance,[14]; [19],532 ± 95
same,Vertical activity,[14]; [19],363 ± 91
same,Horizontal activity,[14]; [20],8242 ± 847
same,Total distance,[14]; [20],2707 ± 950
same,Vertical activity,[14]; [20],528 ± 126
same,Horizontal activity,[14]; [21],3874 ± 295
same,Total distance,[14]; [21],843 ± 149
same,Vertical activity,[14]; [21],276 ± 57
same,effect on motor activity in mice (in words),[14]; independently of the dosage administered (2.5-10 mg/kg),induces a clear increase in motor activity
same,appearance of catalepsy in mice (FIG. 1),[15],none of them brought about the appearance of catalepsy in mice
"CCNC(=O)[C@H]1O[C@@H](n2cnc3c(N)nc(NCCc4ccc(CCC(=O)O)cc4)nc32)[C@H](O)[C@@H]1O [CGS 21680, reference compound]",Horizontal activity,[14]; [22],1608 ± 328
same,Total distance,[14]; [22],504 ± 106
same,Vertical activity,[14]; [22],27 ± 11
same,Horizontal activity,[14]; [23],471 ± 254
same,Total distance,[14]; [23],121 ± 73
same,Vertical activity,[14]; [23],10 ± 1
